According to article PMC7782785, “Outer-membrane-acting peptides and lipid II-targeting antibiotics cooperatively kill Gram-negative pathogens” (Communications Biology, 2021):
Converted amounts (≈) assume the structure as drawn.

Assays:
[1] = test system: human red blood cells (hRBCs); experiment: Hemolytic activity
Description: Hemolytic activity was determined with fresh human red blood cells (hRBCs)[28]. The hRBCs were centrifuged (1000×g, 5 min) and the supernatant was discarded. The pellets were washed three times with PBS and diluted in PBS to make the cell stock solution with a cell density of 2*10^8 cells/mL. […] 1% Triton X-100 and PBS were used as controls. The cells were incubated at 37 °C for 1 h and centrifuged at 2000 rpm for 5 min. The supernatant was transferred to a new 96-well plate and hemolysis was monitored by measuring the absorbance at 450 nm (OD450). Hemolysis levels were calculated as percentage. % hemolysis = 100 × (As−A0)/(At−A0), where As, A0, and At are the absorbance of the hRBCs suspension in PBS with antimicrobial agents (As), without antimicrobial agents (A0), and with 1% Triton X-100 (At). […] For the TI calculation (TI = MHC/GM), other factors as the GM (geometric mean of MIC value of all the Gram-negative strains tested) were calculated.

P. aeruginosa PA14 [2] = experiment: Murine abscess model; type: in vivo, BALB/c mice
Description: An overnight P. aeruginosa PA14 culture was inoculated into fresh LB medium (100-fold dilution) and grown until an OD600 of 1.0. The culture was washed twice and resuspended in 0.9% NaCl to 10^8 CFU/mL. Four groups of five 6-week-old female BALB/c mice were used. […] After 24 h, the mice were sacrificed and the abscesses were excised to count the CFU. The bacterial loads were determined by serial dilution and plating. All animal experiments complied with the US and Chinese national guidelines for the use of animals in research. The protocol was approved by the Animal Care and Use Committee of the College of Life Sciences, Nankai University (permission number NK-04-2012). All procedures involving animals were performed after animals were anesthetized. The experimental results were analyzed with the GraphPad Prism software.

P. aeruginosa ATCC 27853 = experiment: microbe, parasite or virus in culture; type: cell-based; conditions: Pseudomonas aeruginosa, ATCC27853, read-out: MIC alone (MICA vancomycin, MICB D-11)
Description: (§1) MIC tests were performed in triplicate by liquid growth inhibition microdilution assays in sterile polypropylene microtiter plates according to the Clinical and Laboratory Standards Institute (CLSI) guideline for bacteria that grow aerobically. Briefly, the indicator strains were first streaked on the appropriate agar plate, and then single colonies were picked and incubated overnight in liquid broth. The final inoculum of bacteria was 5*10^5 CFU/mL prepared in CAMHB (cationic adjusted Mueller–Hinton broth, Sigma-Aldrich) or CAMHB plus 5% of lysed horse blood (TCS Biosciences, Buckingham, UK) in the case of S. pneumoniae. The antimicrobials were 2-fold serially diluted and 50 µL diluted bacterial suspension was added to each well to make the final volume 100 µL. The microtiter plates and the count plates were incubated at 37 °C for 16–20 h without shaking. Growth inhibition was assessed by measuring the OD600 using a microplate reader (Tecan Infinity F200). The lowest concentration of the antimicrobials that inhibits visible growth of the indicator strain is identified as the MIC value.

E. coli ATCC BAA-2452 = experiment: microbe, parasite or virus in culture; type: cell-based; conditions: Escherichia coli, ATCCBAA2452, read-out: MIC alone (MICA vancomycin, MICB D-11)
Description: as §1

E. coli B1927 = experiment: microbe, parasite or virus in culture; type: cell-based; conditions: Escherichia coli, B1927, read-out: MIC alone (MICA vancomycin, MICB D-11)
Description: as §1

K. pneumoniae B1945 = experiment: microbe, parasite or virus in culture; type: cell-based; conditions: Klebsiella pneumoniae, B1945, read-out: MIC alone (MICA vancomycin, MICB D-11)
Description: as §1

A. baumannii ATCC 17978 = experiment: microbe, parasite or virus in culture; type: cell-based; conditions: Acinetobacter baumannii, ATCC17978, read-out: MIC alone (MICA vancomycin, MICB D-11)
Description: as §1

[3] = test system: K. pneumoniae ATCC BAA-2524; experiment: microbe, parasite or virus in culture; type: cell-based; conditions: Klebsiella pneumoniae, ATCCBAA2524, read-out: MIC alone (MICA vancomycin, MICB D-11)
Description: as §1

[4] = test system: A. baumannii ATCC BAA-1605; experiment: microbe, parasite or virus in culture; type: cell-based; conditions: Acinetobacter baumannii, ATCCBAA1605, read-out: MIC alone (MICA vancomycin, MICB D-11)
Description: as §1

A. baumannii B2026 = experiment: microbe, parasite or virus in culture; type: cell-based; conditions: Acinetobacter baumannii, B2026, read-out: MIC alone (MICA vancomycin, MICB D-11)
Description: as §1

E. coli ATCC 25922 = experiment: microbe, parasite or virus in culture; type: cell-based; conditions: Escherichia coli, ATCC25922, read-out: MIC alone (MICA vancomycin, MICB D-11)
Description: as §1

P. aeruginosa PA14 [5] = experiment: microbe, parasite or virus in culture; type: cell-based; conditions: Pseudomonas aeruginosa, PA14, read-out: MIC alone (MICA vancomycin, MICB D-11)
Description: as §1

P. aeruginosa B1954 = experiment: microbe, parasite or virus in culture; type: cell-based; conditions: Pseudomonas aeruginosa, B1954, read-out: MIC alone (MICA vancomycin, MICB D-11)
Description: as §1

K. pneumoniae ATCC700603 = experiment: microbe, parasite or virus in culture; type: cell-based; conditions: Klebsiella pneumoniae, ATCC700603, read-out: MIC alone (MICA vancomycin, MICB D-11)
Description: as §1

[6] = test system: P. aeruginosa ATCC BAA-2108; experiment: microbe, parasite or virus in culture; type: cell-based; conditions: Pseudomonas aeruginosa, ATCCBAA2108, read-out: MIC alone (MICA vancomycin, MICB D-11)
Description: as §1

CN[C@H](CC(C)C)C(=O)N[C@H]1C(=O)N[C@@H](CC(N)=O)C(=O)N[C@H]2C(=O)N[C@H]3C(=O)N[C@H](C(=O)N[C@H](C(=O)O)c4cc(O)cc(O)c4-c4cc3ccc4O)[C@H](O)c3ccc(c(Cl)c3)Oc3cc2cc(c3O[C@@H]2O[C@H](CO)[C@@H](O)[C@H](O)[C@H]2O[C@H]2C[C@](C)(N)[C@H](O)[C@H](C)O2)Oc2ccc(cc2Cl)[C@H]1O [Vancomycin]
HC50, concentration that causes 50% hemolysis of hRBCs [1]: > 500 µM | MHA, mean hemolytic activity [1]: 0% | MHC, minimal hemolytic concentration that caused 10% hemolysis of hRBCs [1]: 1000 µM | hemolysis of hRBCs [1]: did not cause any hemolysis | log10 CFU per abscess (P. aeruginosa PA14 [2]; mouse 1 of 5, P. aeruginosa PA14 s.c., treatment injected into infection area 1 h post-infection, 24 h, vancomycin 3 mg/kg, D-11 10 mg/kg, or both): 8.341 log10 CFU per abscess | log10 CFU per abscess (P. aeruginosa PA14 [2]; mouse 2 of 5, same conditions): 7.354 log10 CFU per abscess | log10 CFU per abscess (P. aeruginosa PA14 [2]; mouse 3 of 5, same conditions): 7.321 log10 CFU per abscess | log10 CFU per abscess (P. aeruginosa PA14 [2]; mouse 4 of 5, same conditions): 7.43 log10 CFU per abscess | log10 CFU per abscess (P. aeruginosa PA14 [2]; mouse 5 of 5, same conditions): 7.5121 log10 CFU per abscess | MIC (P. aeruginosa ATCC 27853): > 88.3 µM | MIC (E. coli ATCC BAA-2452): > 88.3 µM | MIC (E. coli B1927): 88.3 µM (≈ 128 µg/mL) | MIC (K. pneumoniae B1945): > 88.3 µM | MIC (A. baumannii ATCC 17978): 88.3 µM (≈ 128 µg/mL) | MIC [3]: > 88.3 µM | MIC [4]: 44.2 µM (≈ 64 µg/mL) | MIC (A. baumannii B2026): 22.1 µM (≈ 32 µg/mL) | MIC (E. coli ATCC 25922): > 88.3 µM | MIC (P. aeruginosa PA14 [5]): 88.3 µM (≈ 128 µg/mL) | MIC (P. aeruginosa B1954): 88.3 µM (≈ 128 µg/mL) | MIC (K. pneumoniae ATCC700603): > 88.3 µM | MIC [6]: > 88.3 µM
